Reference: patent US20240092784A1, “CONDENSED HETEROCYCLIC COMPOUND” (NISSAN CHEMICAL CORPORATION, priority 2020, published 2024)

Biological target: human SPR (Homo sapiens (Human), UniProt P35270)
Experiment: Evaluation Example 2: Measurement of human SPR inhibitory activity (seven concentrations, sepiapterin absorbance at 420 nm)
Type: biochemical
Conditions: Evaluation Example 2, seven concentrations 0.14 nM to 100 nM, 240 minutes at room temperature, read-out: IC50
How it was run: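 His-tagged full-length human SPR (1-261) was expressed in E. coli and the tag removed. Enzyme at 150 ng/mL in 100 mM Tris-HCl pH 7.5/0.01% BSA was mixed with compound (0.14–100 nM, seven points), 120 μM sepiapterin and 160 μM NADPH, both as added-solution concentrations. After 240 min at room temperature, remaining sepiapterin was read at 420 nm to give percent inhibition.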

Chain of human SPR (P35270 whole entry): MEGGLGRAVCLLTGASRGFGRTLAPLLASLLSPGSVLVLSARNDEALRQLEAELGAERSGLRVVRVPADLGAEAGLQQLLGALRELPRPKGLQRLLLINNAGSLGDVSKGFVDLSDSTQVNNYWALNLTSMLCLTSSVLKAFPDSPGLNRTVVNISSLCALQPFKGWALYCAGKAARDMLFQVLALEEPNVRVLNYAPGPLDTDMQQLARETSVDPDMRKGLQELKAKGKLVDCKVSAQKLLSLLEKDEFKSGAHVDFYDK

For `CC(C)Cn1c(=O)c(C(=O)NC2CC2)c(O)n2ncc(/C=C/C(=O)N3[C@@H](C)COC[C@@H]3C)c12` [compound 457, N-Cyclopropyl-3-((E)-3-((3S,5S)-3,5-dimethylmorpholino)-3-oxoprop-1-en-1-yl)-7-hydroxy-4-isobutyl-5-oxo-4,5-dihydropyrazolo[1,5-a]pyrimidine-6-carboxamide], which IC50 is on record?
The IC50 was 0.81 nM.

`CC(C)Cn1c(=O)c(C(=O)NC2CC2)c(O)n2ncc(/C=C/C(=O)N3CCC[C@@H]3C)c12` [compound 458, (S,E)-N-Cyclopropyl-7-hydroxy-4-isobutyl-3-(3-(2-methylpyrrolidin-1-yl)-3-oxoprop-1-en-1-yl)-5-oxo-4,5-dihydropyrazolo[1,5-a]pyrimidine-6-carboxamide] was tested. Which IC50 did it give?
The IC50 was 0.79 nM.

How did the IC50 turn out when `CC(C)Cn1c(=O)c(C(=O)NC2CC2)c(O)n2ncc(/C=C/C(=O)N3CCOCC3(C)C)c12` [compound 459, (E)-N-Cyclopropyl-3-(3-(3,3-dimethylmorpholino)-3-oxoprop-1-en-1-yl)-7-hydroxy-4-isobutyl-5-oxo-4,5-dihydropyrazolo[1,5-a]pyrimidine-6-carboxamide] was run?
The IC50 was 0.74 nM.

`CC(C)Cn1c(=O)c(C(=O)NC2CC2)c(O)n2ncc(/C=C/C(=O)N3CCN(C4CC(F)(F)C4)CC3)c12` [compound 460, (E)-N-Cyclopropyl-3-(3-(4-(3,3-difluorocyclobutyl)piperazin-1-yl)-3-oxoprop-1-en-1-yl)-7-hydroxy-4-isobutyl-5-oxo-4,5-dihydropyrazolo[1,5-a]pyrimidine-6-carboxamide] was tested. Which IC50 did it give?
Its IC50 is 1.24 nM.

With `CC(C)Cn1c(=O)c(C(=O)NC2CC2)c(O)n2ncc(/C=C/C(=O)N3CCCOCC3)c12` [compound 461, (E)-3-(3-(1,4-Oxazepan-4-yl)-3-oxoprop-1-en-1-yl)-N-cyclopropyl-7-hydroxy-4-isobutyl-5-oxo-4,5-dihydropyrazolo[1,5-a]pyrimidine-6-carboxamide] as the molecule, how does the IC50 read?
Its IC50 is 0.75 nM.

Which IC50 does the source give for `CC(C)Cn1c(=O)c(C(=O)NC2CC2)c(O)n2ncc(/C=C/C(=O)N3CCN(C(C)C)CC3)c12` [compound 462, (E)-N-Cyclopropyl-7-hydroxy-4-isobutyl-3-(3-(4-isopropylpiperazin-1-yl)-3-oxoprop-1-en-1-yl)-5-oxo-4,5-dihydropyrazolo[1,5-a]pyrimidine-6-carboxamide] here?
Its IC50 is 0.96 nM.

Which IC50 does the source give for `CC(C)Cn1c(=O)c(C(=O)NC2CC2)c(O)n2ncc(/C=C/C(=O)N3CCC(F)CC3)c12` [compound 463, (E)-N-Cyclopropyl-3-(3-(4-fluoropiperidin-1-yl)-3-oxoprop-1-en-1-yl)-7-hydroxy-4-isobutyl-5-oxo-4,5-dihydropyrazolo[1,5-a]pyrimidine-6-carboxamide] here?
Its IC50 is 0.97 nM.

For `CC(C)Cn1c(=O)c(C(=O)NC2CC2)c(O)n2ncc(/C=C/C(=O)N3CCC(F)(F)CC3)c12` [compound 464, (E)-N-Cyclopropyl-3-(3-(4,4-difluoropiperidin-1-yl)-3-oxoprop-1-en-1-yl)-7-hydroxy-4-isobutyl-5-oxo-4,5-dihydropyrazolo[1,5-a]pyrimidine-6-carboxamide], which IC50 is on record?
The IC50 was 0.8 nM.

With `CC(C)Cn1c(=O)c(C(=O)NC2CC2)c(O)n2ncc(/C=C/C(=O)N3CCC(OC(F)(F)F)CC3)c12` [compound 465, (E)-N-Cyclopropyl-7-hydroxy-4-isobutyl-5-oxo-3-(3-oxo-3-(4-(trifluoromethoxy)piperidin-1-yl)prop-1-en-1-yl)-4,5-dihydropyrazolo[1,5-a]pyrimidine-6-carboxamide] as the molecule, how does the IC50 read?
Its IC50 is 1.76 nM.

For `CC(C)Cn1c(=O)c(C(=O)NC2CC2)c(O)n2ncc(/C=C/C(=O)N3CCC(C(F)F)CC3)c12` [compound 466, (E)-N-Cyclopropyl-3-(3-(4-(difluoromethyl)piperidin-1-yl)-3-oxoprop-1-en-1-yl)-7-hydroxy-4-isobutyl-5-oxo-4,5-dihydropyrazolo[1,5-a]pyrimidine-6-carboxamide], which IC50 is on record?
The IC50 was 1.27 nM.

`CC(C)Cn1c(=O)c(C(=O)NC2CC2)c(O)n2ncc(/C=C/C(=O)N3CCC(C)(O)CC3)c12` [compound 467, (E)-N-Cyclopropyl-7-hydroxy-3-(3-(4-hydroxy-4-methylpiperidin-1-yl)-3-oxoprop-1-en-1-yl)-4-isobutyl-5-oxo-4,5-dihydropyrazolo[1,5-a]pyrimidine-6-carboxamide] was tested. Which IC50 did it give?
The IC50 was 0.79 nM.

With `CC(C)Cn1c(=O)c(C(=O)NC2CC2)c(O)n2ncc(/C=C/C(=O)N3CCC(C#N)CC3)c12` [compound 468] as the molecule, how does the IC50 read?
Its IC50 is 0.84 nM.

With `CC(C)Cn1c(=O)c(C(=O)NC2CC2)c(O)n2ncc(/C=C/C(=O)N3CCC(C(C)(F)F)CC3)c12` [compound 469] as the molecule, how does the IC50 read?
The IC50 was 0.89 nM.

`COC1(C)CCN(C(=O)/C=C/c2cnn3c(O)c(C(=O)NC4CC4)c(=O)n(CC(C)C)c23)CC1` [compound 470] was tested. Which IC50 did it give?
The IC50 was 0.88 nM.

For `CC(C)Cn1c(=O)c(C(=O)NC2CC2)c(O)n2ncc(/C=C/C(=O)N3CCN(C4CC4)CC3)c12` [compound 471, (E)-N-Cyclopropyl-3-(3-(4-cyclopropylpiperazin-1-yl)-3-oxoprop-1-en-1-yl)-7-hydroxy-4-isobutyl-5-oxo-4,5-dihydropyrazolo[1,5-a]pyrimidine-6-carboxamide], which IC50 is on record?
Its IC50 is 1.18 nM.

Which IC50 does the source give for `CC(C)Cn1c(=O)c(C(=O)NC2CC2)c(O)n2ncc(/C=C/C(=O)N3CCN(C4CCC4)CC3)c12` [compound 472, (E)-3-(3-(4-Cyclobutylpiperazin-1-yl)-3-oxoprop-1-en-1-yl)-N-cyclopropyl-7-hydroxy-4-isobutyl-5-oxo-4,5-dihydropyrazolo[1,5-a]pyrimidine-6-carboxamide] here?
Its IC50 is 1.12 nM.

For `CC(C)Cn1c(=O)c(C(=O)NC2CC2)c(O)n2ncc(/C=C/C(=O)N3CCC(C(C)C)CC3)c12` [compound 473, (E)-N-Cyclopropyl-7-hydroxy-4-isobutyl-3-(3-(4-isopropylpiperidin-1-yl)-3-oxoprop-1-en-1-yl)-5-oxo-4,5-dihydropyrazolo[1,5-a]pyrimidine-6-carboxamide], which IC50 is on record?
The IC50 was 2.11 nM.

`CC(C)Cn1c(=O)c(C(=O)NC2CC2)c(O)n2ncc(/C=C/C(=O)N3CCC(C(C)(C)O)CC3)c12` [compound 474, (E)-N-Cyclopropyl-7-hydroxy-3-(3-(4-(2-hydroxypropan-2-yl)piperidin-1-yl)-3-oxoprop-1-en-1-yl)-4-isobutyl-5-oxo-4,5-dihydropyrazolo[1,5-a]pyrimidine-6-carboxamide] was tested. Which IC50 did it give?
Its IC50 is 0.88 nM.

How did the IC50 turn out when `COCC1CCN(C(=O)/C=C/c2cnn3c(O)c(C(=O)NC4CC4)c(=O)n(CC(C)C)c23)CC1` [compound 475, (E)-N-Cyclopropyl-7-hydroxy-4-isobutyl-3-(3-(4-(methoxymethyl)piperidin-1-yl)-3-oxoprop-1-en-1-yl)-5-oxo-4,5-dihydropyrazolo[1,5-a]pyrimidine-6-carboxamide] was run?
Its IC50 is 0.85 nM.

Which IC50 does the source give for `CC(C)Cn1c(=O)c(C(=O)NC2CC2)c(O)n2ncc(/C=C/C(=O)N3CCC(O)CC3)c12` [compound 476, (E)-N-Cyclopropyl-7-hydroxy-3-(3-(4-hydroxypiperidin-1-yl)-3-oxoprop-1-en-1-yl)-4-isobutyl-5-oxo-4,5-dihydropyrazolo[1,5-a]pyrimidine-6-carboxamide] here?
The IC50 was 0.75 nM.

How did the IC50 turn out when `CC(C)Cn1c(=O)c(C(=O)NC2CC2)c(O)n2ncc(/C=C/C(=O)N3CCC(C(N)=O)CC3)c12` [compound 477, (E)-3-(3-(4-Carbamoylpiperidin-1-yl)-3-oxoprop-1-en-1-yl)-N-cyclopropyl-7-hydroxy-4-isobutyl-5-oxo-4,5-dihydropyrazolo[1,5-a]pyrimidine-6-carboxamide] was run?
Its IC50 is 0.64 nM.

With `CC(C)Cn1c(=O)c(C(=O)NC2CC2)c(O)n2ncc(/C=C/C(=O)N3CCC(OC4CCOCC4)CC3)c12` [compound 478, (E)-N-Cyclopropyl-7-hydroxy-4-isobutyl-5-oxo-3-(3-oxo-3-(4-((tetrahydro-2H-pyran-4-yl)oxy)piperidin-1-yl)prop-1-en-1-yl)-4,5-dihydropyrazolo[1,5-a]pyrimidine-6-carboxamide] as the molecule, how does the IC50 read?
The IC50 was 0.95 nM.

`CC(C)Cn1c(=O)c(C(=O)NC2CC2)c(O)n2ncc(/C=C/C(=O)N3CCC(C)(C)C3)c12` [compound 479, (E)-N-Cyclopropyl-3-(3-(3,3-dimethylpyrrolidin-1-yl)-3-oxoprop-1-en-1-yl)-7-hydroxy-4-isobutyl-5-oxo-4,5-dihydropyrazolo[1,5-a]pyrimidine-6-carboxamide] was tested. Which IC50 did it give?
Its IC50 is 1.05 nM.

Which IC50 does the source give for `CC(C)Cn1c(=O)c(C(=O)NC2CC2)c(O)n2ncc(/C=C/C(=O)N3CCC(C(F)(F)F)CC3)c12` [compound 480, (E)-N-Cyclopropyl-7-hydroxy-4-isobutyl-5-oxo-3-(3-oxo-3-(4-(trifluoromethyl)piperidine-1-yl)prop-1-en-1-yl)-4,5-dihydropyrazolo[1,5-a]pyrimidine-6-carboxamide] here?
Its IC50 is 1.12 nM.

How did the IC50 turn out when `CC(C)Cn1c(=O)c(C(=O)NC2CC2)c(O)n2ncc(/C=C/C(=O)N3CC[C@@H](F)C3)c12` [compound 481, (R,E)-N-Cyclopropyl-3-(3-(3-fluoropyrrolidin-1-yl)-3-oxoprop-1-en-1-yl)-7-hydroxy-4-isobutyl-5-oxo-4,5-dihydropyrazolo[1,5-a]pyrimidine-6-carboxamide] was run?
Its IC50 is 0.75 nM.

With `CC(C)Cn1c(=O)c(C(=O)NC2CC2)c(O)n2ncc(/C=C/C(=O)N3CC[C@H](C#N)C3)c12` [compound 482, (S,E)-3-(3-(3-Cyanopyrrolidin-1-yl)-3-oxoprop-1-en-1-yl)-N-cyclopropyl-7-hydroxy-4-isobutyl-5-oxo-4,5-dihydropyrazolo[1,5-a]pyrimidine-6-carboxamide] as the molecule, how does the IC50 read?
The IC50 was 0.71 nM.

Which IC50 does the source give for `CC(C)Cn1c(=O)c(C(=O)NC2CC2)c(O)n2ncc(/C=C/C(=O)N3CC[C@@H](C#N)C3)c12` [compound 483, (R,E)-3-(3-(3-Cyanopyrrolidin-1-yl)-3-oxoprop-1-en-1-yl)-N-cyclopropyl-7-hydroxy-4-isobutyl-5-oxo-4,5-dihydropyrazolo[1,5-a]pyrimidine-6-carboxamide] here?
The IC50 was 0.69 nM.

Which IC50 does the source give for `CC(C)Cn1c(=O)c(C(=O)NC2CC2)c(O)n2ncc(/C=C/C(=O)N3CCC[C@H]3C(F)(F)F)c12` [compound 484, (S,E)-N-Cyclopropyl-7-hydroxy-4-isobutyl-5-oxo-3-(3-oxo-3-(2-(trifluoromethyl)pyrrolidine-1-yl)prop-1-en-1-yl)-4,5-dihydropyrazolo[1,5-a]pyrimidine-6-carboxamide] here?
The IC50 was 1.2 nM.
